Measurements as given in patent US12415794B2 (Edgewise Therapeutics, Inc., priority 2018, dated 2025).

Tests used:
[1] = target: T1, cardiac myofibrils (myosin ATPase); experiment: Cardiac Myofibril ATPase Assay (counter screen); type: biochemical; conditions: myofibrils 1.0 mg/mL, KCl omitted, Table 5A
T1 construct: frozen myofibril pellets obtained from cardiac tissue; from tissue
Experimental: (§1) Overview: Myosin ATPase activity is assessed by using a coupled reaction system, in which ADP generated by the myosin ATPase function is coupled to the disappearance of NADH through the pyruvate kinase/lactate dehydrogenase (PK-LDH) system. ATPase activity produces ADP, which is used as a substrate for PK to produce pyruvate and regenerate ATP. The pyruvate is then used as a substrate by LDH to oxidize NADH to NAD+. The rate of the reaction is monitored through the time-dependent disappearance of NADH using absorbance at 340 nm. Inhibition of ATPase activity by the assayed compounds is indicated by a reduced rate of NADH loss, relative to vehicle-treated controls, over the experimental time window. To assess the selectivity of the assayed compounds for skeletal myofibrils, the compounds are counter-screened in cardiac myofibrils.
Example 13: Cardiac Myofibril ATPase Assay
Following example 11, the counter screen was done using frozen myofibril pellets obtained from cardiac tissue. The assay was done in the same manner as above, with the following notable exceptions: the final well concentration of myofibrils was 1.0 mg/mL and KCl was omitted from the recipe.
Compounds of Table 1 to 3 were tested, and results of the assays appear in Tables 5a-5c herein. A=IC50 is less than or equal to 10 μM; B=IC50 is greater than 10 μM and less than 100 μM; C=IC50 is greater than 100 μM; and […].

[2] = target: skeletal myofibrils (myosin ATPase); experiment: Skeletal Myofibril ATPase Assay; type: biochemical; conditions: Table 4A
Experimental: FIG. 7 depicts the buffer preparation procedures of Buffer A and Buffer B for the skeletal myofibril ATPase assay described in Example 12. Buffers were stored on ice until use.
Example 12: Skeletal Myofibril ATPase Assay
as §1
Materials: The following stock solutions and reagents were used in the Skeletal Myofibril ATPase Assay:
Stock Solutions of pCa buffer. Combine PIPES, CaCl2, and EGTA solutions with 70 mL of water. Adjust pH to 7.0 and bring final volume to 100 mL.
Skeletal Myofibril ATPase Assay Procedure: BSA, ATP, NADH, PEP, and DTT solutions were thawed at room temperature, then transferred to ice. Pellet-frozen myofibrils were transferred with approximately twice the required volume into a sufficiently large tube and capped. Myofibrils were thawed by rolling in a water bath for approximately 15 min at room temperature and cooled on ice. Buffers A and B were prepared by adjusting volumes as necessary for required number of wells and stored on ice. 0.5 μL of the compounds to be assayed were added into wells. 25 μL of Buffer A was dispensed into the wells, followed by 25 μL of Buffer B. The wells were measured for absorbance at 340 nm, using a kinetic protocol in which the wells are read every 1.5-2 min for 45 min. The slope of the data was approximated by subtracting the minimum absorbance value from the maximum value for each well. This was accomplished either in the SoftMax Pro software or in a spreadsheet program such as Excel. Using GraphPad Prism 8.0, the data was normalized by assigning a value of 100% to the 1% DMSO vehicle wells. Typically, a normalized 0% value was simply assigned to a (Max−Min) value of 0. The normalized data was fit to a Four Parameter Logistic sigmoidal equation, constraining the bottom to be 0 or greater. Compounds of Table 1, 2, and 3 were tested and results of the assay appear in Tables 4a-4c. A=IC50 is less than or equal to 10 μM; B=IC50 is greater than 10 μM and less than 100 μM; C=IC50 is greater than 100 μM.

T1 sequence (P12883 whole entry): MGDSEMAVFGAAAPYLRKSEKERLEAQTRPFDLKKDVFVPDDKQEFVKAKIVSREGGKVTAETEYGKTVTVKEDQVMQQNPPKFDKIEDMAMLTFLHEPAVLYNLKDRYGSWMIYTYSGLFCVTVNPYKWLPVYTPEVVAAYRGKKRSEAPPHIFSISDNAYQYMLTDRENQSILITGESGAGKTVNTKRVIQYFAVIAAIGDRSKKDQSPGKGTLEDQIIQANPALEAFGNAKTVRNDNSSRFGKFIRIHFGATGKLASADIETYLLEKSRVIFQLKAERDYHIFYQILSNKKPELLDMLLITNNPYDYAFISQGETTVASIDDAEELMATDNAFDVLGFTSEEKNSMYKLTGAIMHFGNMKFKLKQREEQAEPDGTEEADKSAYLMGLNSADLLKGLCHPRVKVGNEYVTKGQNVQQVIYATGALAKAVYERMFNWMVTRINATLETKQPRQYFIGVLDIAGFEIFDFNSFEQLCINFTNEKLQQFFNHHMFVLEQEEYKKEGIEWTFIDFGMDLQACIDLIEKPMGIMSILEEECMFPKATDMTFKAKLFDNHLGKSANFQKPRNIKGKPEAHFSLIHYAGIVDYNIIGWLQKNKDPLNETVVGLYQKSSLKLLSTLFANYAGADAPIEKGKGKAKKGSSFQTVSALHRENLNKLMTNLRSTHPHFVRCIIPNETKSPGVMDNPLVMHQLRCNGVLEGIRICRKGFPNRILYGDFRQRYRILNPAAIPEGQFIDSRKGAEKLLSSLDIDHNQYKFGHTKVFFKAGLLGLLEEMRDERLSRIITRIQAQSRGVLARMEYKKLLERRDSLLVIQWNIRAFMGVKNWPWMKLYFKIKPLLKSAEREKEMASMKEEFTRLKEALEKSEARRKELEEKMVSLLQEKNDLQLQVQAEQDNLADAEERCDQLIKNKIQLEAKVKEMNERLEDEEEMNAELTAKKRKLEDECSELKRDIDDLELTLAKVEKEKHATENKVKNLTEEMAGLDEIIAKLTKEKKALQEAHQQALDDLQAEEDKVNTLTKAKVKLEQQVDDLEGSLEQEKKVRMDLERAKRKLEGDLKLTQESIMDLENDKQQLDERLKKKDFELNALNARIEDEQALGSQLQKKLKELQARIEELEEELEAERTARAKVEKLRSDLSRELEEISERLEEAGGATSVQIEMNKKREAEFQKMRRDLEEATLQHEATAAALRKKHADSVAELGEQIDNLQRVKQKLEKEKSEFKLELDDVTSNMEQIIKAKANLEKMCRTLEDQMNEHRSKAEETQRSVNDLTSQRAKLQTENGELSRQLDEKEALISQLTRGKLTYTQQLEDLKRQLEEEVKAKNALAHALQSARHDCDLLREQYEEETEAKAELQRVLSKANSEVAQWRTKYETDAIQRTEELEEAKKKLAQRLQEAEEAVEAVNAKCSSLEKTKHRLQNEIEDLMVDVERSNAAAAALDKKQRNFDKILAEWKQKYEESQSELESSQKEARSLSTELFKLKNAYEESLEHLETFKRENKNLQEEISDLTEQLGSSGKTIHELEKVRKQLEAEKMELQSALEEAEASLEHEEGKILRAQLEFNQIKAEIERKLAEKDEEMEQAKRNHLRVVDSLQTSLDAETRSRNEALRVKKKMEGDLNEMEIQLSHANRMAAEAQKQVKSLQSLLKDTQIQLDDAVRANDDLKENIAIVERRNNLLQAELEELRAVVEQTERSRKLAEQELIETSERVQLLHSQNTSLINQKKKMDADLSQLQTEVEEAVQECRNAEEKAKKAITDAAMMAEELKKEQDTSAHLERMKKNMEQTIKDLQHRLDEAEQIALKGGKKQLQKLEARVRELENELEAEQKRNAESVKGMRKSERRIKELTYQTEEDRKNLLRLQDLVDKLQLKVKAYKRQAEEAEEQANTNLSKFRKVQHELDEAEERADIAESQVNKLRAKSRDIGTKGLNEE
T1 sequence (P08590 whole entry partner): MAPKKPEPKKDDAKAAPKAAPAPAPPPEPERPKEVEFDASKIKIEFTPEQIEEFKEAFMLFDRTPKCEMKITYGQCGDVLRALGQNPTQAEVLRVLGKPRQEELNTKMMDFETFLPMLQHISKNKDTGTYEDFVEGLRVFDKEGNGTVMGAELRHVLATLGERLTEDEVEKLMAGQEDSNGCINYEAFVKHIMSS
T1 sequence (P10916 whole entry partner): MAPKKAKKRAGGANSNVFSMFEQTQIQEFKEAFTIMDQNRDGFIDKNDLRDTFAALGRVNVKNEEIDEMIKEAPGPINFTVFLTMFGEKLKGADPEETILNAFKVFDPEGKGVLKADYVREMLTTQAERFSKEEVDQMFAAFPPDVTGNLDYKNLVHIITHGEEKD

| IC50 [1] [µM] | IC50 [2] [µM] | SMILES |
| --- | --- | --- |
| > 100 | 10 to 100 | CCNC(=O)Cn1nc(-c2ccc(OCC3(C)COC3)nc2)ccc1=O [Compound I-24, N-ethyl-2-(3-(6-((3-methyloxetan-3-yl)methoxy)pyridin-3-yl)-6-oxopyridazin-1(6H)-yl)acetamide] |
| > 100 | > 100 | CCNC(=O)Cn1nc(-c2ccc(OC3COC3)nc2)ccc1=O [Compound I-25, N-ethyl-2-(3-(6-(oxetan-3-yloxy)pyridin-3-yl)-6-oxopyridazin-1(6H)-yl)acetamide] |
| > 100 | > 100 | CCNC(=O)Cn1nc(-c2ccc(OCCN(C)C)nc2)ccc1=O [Compound I-26, 2-(3-(6-(2-(dimethylamino)ethoxy)pyridin-3-yl)-6-oxopyridazin-1(6H)-yl)-N-ethylacetamide] |
| > 100 | > 100 | CCNC(=O)Cn1nc(-c2ccc(OC(C)C)nc2)ccc1=O [Compound I-27, N-ethyl-2-(3-(6-isopropoxypyridin-3-yl)-6-oxopyridazin-1(6H)-yl)acetamide] |
| > 100 | > 100 | CCNC(=O)Cn1nc(-c2ccc(OCCCN(C)C)nc2)ccc1=O [Compound I-28, 2-(3-(6-(3-(dimethylamino)propoxy)pyridin-3-yl)-6-oxopyridazin-1(6H)-yl)-N-ethylacetamide] |
| > 100 | > 100 | C[C@H](NC(=O)Cn1nc(-c2ccc(OC(F)F)nc2)ccc1=O)c1ccnn1C [Compound I-29, (S)-2-(3-(6-(difluoromethoxy)pyridin-3-yl)-6-oxopyridazin-1(6H)-yl)-N-(1-(1-methyl-1H-pyrazol-5-yl)ethyl)acetamide] |
| > 100 | > 100 | Cn1nccc1CNC(=O)Cn1nc(-c2ccc(OC(F)F)nc2)ccc1=O [Compound I-30, 2-(3-(6-(difluoromethoxy)pyridin-3-yl)-6-oxopyridazin-1(6H)-yl)-N-((1-methyl-1H-pyrazol-5-yl)methyl)acetamide] |
| > 100 | > 100 | CCNC(=O)Cn1nc(-c2ccc(N3CC4(COC4)C3)nc2)ccc1=O [Compound I-31, 2-(3-(6-(2-oxa-6-azaspiro[3.3]heptan-6-yl)pyridin-3-yl)-6-oxopyridazin-1(6H)-yl)-N-ethylacetamide] |
| > 100 | > 100 | CCNC(=O)Cn1nc(-c2ccc(N3CC4(C3)CS(=O)(=O)C4)nc2)ccc1=O [Compound I-32, 2-(3-(6-(2,2-dioxido-2-thia-6-azaspiro[3.3]heptan-6-yl)pyridin-3-yl)-6-oxopyridazin-1(6H)-yl)-N-ethylacetamide] |
| > 100 | > 100 | O=C(Cn1nc(-c2ccc(OC(F)F)nc2)ccc1=O)NC1CC(F)(F)C1 [Compound I-33] |
| > 100 | 10 to 100 | CC(C)(C#N)NC(=O)Cn1nc(-c2ccc(OC(F)F)nc2)ccc1=O [Compound I-35, N-(2-cyanopropan-2-yl)-2-(3-(6-(difluoromethoxy)pyridin-3-yl)-6-oxopyridazin-1(6H)-yl)acetamide] |
| > 100 | < 10 | CCNC(=O)Cn1nc(-c2ccc(NC34CC(C3)C4)nc2)ccc1=O [Compound I-36, 2-(3-(6-(bicyclo[1.1.1]pentan-1-ylamino)pyridin-3-yl)-6-oxopyridazin-1(6H)-yl)-N-ethylacetamide] |
| > 100 | 10 to 100 | CCNC(=O)Cn1nc(-c2ccc(CC(F)(F)F)nc2)ccc1=O [Compound I-37, N-ethyl-2-(6-oxo-3-(6-(2,2,2-trifluoroethyl)pyridin-3-yl)pyridazin-1(6H)-yl)acetamide] |
| > 100 | < 10 | CCNC(=O)Cn1nc(-c2ccc(NC3COC3)nc2)ccc1=O [Compound I-44, N-ethyl-2-(3-(6-(oxetan-3-ylamino)pyridin-3-yl)-6-oxopyridazin-1(6H)-yl)acetamide] |
| > 100 | > 100 | CCNC(=O)Cn1nc(-c2ccc(NC3CCOCC3)nc2)ccc1=O [Compound I-45, N-ethyl-2-(6-oxo-3-(6-((tetrahydro-2H-pyran-4-pyran-4-yl)amino)pyridin-3-yl)pyridazin-1(6H)-yl)acetamide] |
| > 100 | < 10 | O=C(Cn1nc(-c2cnc(NC34CC(C3)C4)nc2)ccc1=O)NC1CCC1 [Compound I-50, 2-(3-(2-(bicyclo[1.1.1]pentan-1-ylamino)pyrimidin-5-yl)-6-oxopyridazin-1(6H)-yl)-N-cyclobutyl-acetamide] |
| > 100 | < 10 | O=C(Cn1nc(-c2cnc(OCC(F)(F)F)nc2)ccc1=O)NC12CC(C1)C2 [Compound I-51, N-(bicyclo[1.1.1]pentan-1-yl)-2-(6-oxo-3-(2-(2,2,2-trifluoroethoxy)pyrimidin-5-yl)pyridazin-1(6H)-yl)acetamide] |
| > 100 | < 10 | O=C(Cn1nc(-c2ccc(NC3CCC3)nc2)ccc1=O)NC1CCC1 [Compound I-52, N-cyclobutyl-2-(3-(6-(cyclobutylamino)pyridin-3-yl)-6-oxopyridazin-1(6H)-yl)acetamide] |
| > 100 | < 10 | CCNC(=O)Cn1nc(-c2ccc(NC(C)(C)C)nc2)ccc1=O [Compound I-53, 2-(3-(6-(tert-butylamino)pyridin-3-yl)-6-oxopyridazin-1(6H)-yl)-N-ethylacetamide] |
| > 100 | < 10 | O=C(Cn1nc(-c2ccc(NC34CC(C3)C4)nc2)ccc1=O)NC1CCC1 [Compound I-54, 2-(3-(6-(bicyclo[1.1.1]pentan-1-ylamino)pyridin-3-yl)-6-oxopyridazin-1(6H)-yl)-N-cyclobutylacetamide] |
| > 100 | 10 to 100 | CCNC(=O)Cn1nc(-c2ccc(N3CC(OC(F)F)C3)nc2)ccc1=O [Compound I-55, 2-(3-(6-(3-(difluoromethoxy)azetidin-1-yl)pyridin-3-yl)-6-oxopyridazin-1(6H)-yl)-N-ethylacetamide] |
| 10 to 100 | < 10 | O=C(Cn1nc(-c2ccc(OCC(F)(F)F)nc2)ccc1=O)NC1CCC1 [Compound I-56, N-cyclobutyl-2-(6-oxo-3-(6-(2,2,2-trifluoroethoxy)pyridin-3-yl)pyridazin-1(6H)-yl)acetamide] |
| > 100 | < 10 | CCNC(=O)Cn1nc(-c2cnc(NC34CC(F)(C3)C4)nc2)ccc1=O [Compound I-57, N-ethyl-2-(3-(2-((3-fluorobicyclo[1.1.1]pentan-1-yl)amino)pyrimidin-5-yl)-6-oxopyridazin-1(6H)-yl)acetamide] |
| > 100 | 10 to 100 | CCNC(=O)Cn1nc(-c2ccc(NC34CC(CO)(C3)C4)nc2)ccc1=O [Compound I-58, N-ethyl-2-(3-(6-((3-(hydroxymethyl)bicyclo[1.1.1]pentan-1-yl)amino)pyridin-3-yl)-6-oxopyridazin-1(6H)-yl)acetamide] |
| > 100 | < 10 | CCNC(=O)Cn1nc(-c2cnc(NC34CC(C3)C4)nc2)ccc1=O [Compound I-59, 2-(3-(2-(bicyclo[1.1.1]pentan-1-ylamino)pyrimidin-5-yl)-6-oxopyridazin-1(6H)-yl)-N-ethylacetamide] |
| > 100 | < 10 | CCNC(=O)Cn1nc(-c2ccc(NC34CC(C)(C3)C4)nc2)ccc1=O [Compound I-60, N-ethyl-2-(3-(6-((3-methylbicyclo[1.1.1]pentan-1-yl)amino)pyridin-3-yl)-6-oxopyridazin-1(6H)-yl)acetamide] |
| 10 to 100 | < 10 | CCNC(=O)Cn1nc(-c2ccc(N(C)C3CCC3)nc2)ccc1=O [Compound I-61, 2-(3-(6-(cyclobutyl(methyl)amino)pyridin-3-yl)-6-oxopyridazin-1(6H)-yl)-N-ethylacetamide] |
| > 100 | < 10 | CCNC(=O)Cn1nc(-c2ccc(NC3CCC3)nc2)ccc1=O [Compound I-62, 2-(3-(6-(cyclobutylamino)pyridin-3-yl)-6-oxopyridazin-1(6H)-yl)-N-ethylacetamide] |
